One data set relates to keratinocytes (HaCaT). Description: Scratch wound healing on keratinocyte monolayer (skin-regenerating effect). Type of data set: cell-based, human. The note with it: relative to scratched area as 100%, 12 ppm (positive control 10% FBS), n=4. The procedure:
A linear scratch wound was made on a monolayer of keratinocytes (HaCaT). The HaCaT cells were cultured using Dulbecco's modified Eagle's medium (DMEM, Lonza, USA) containing 10% fetal bovine serum (FBS, GIBCO, USA) in a 5% CO2 incubator at 37° C. Immediately after the application of a scratch, the medium was replaced with a fresh medium containing the sample to be tested and the effect of the test sample on skin regeneration was investigated. The regeneration of the cells on the scratched area was imaged with a time-lapse microscope for 36 hours with 30-minute intervals and wound healing area (%) was compared relative the scratched area (as 100%) (n=4 per group).

The subject of the next data set is rabbit eye. The note with it: 5%; cited from earlier work.

Turning to Madecassoside, in the data set with keratinocytes (HaCaT), the “Wound healing area (%) 12 hours later” value is 33.56%, the “Wound healing area (%) 24 hours later” value was found to be 54.56%, the “Wound healing area (%) 36 hours later” value turned out to be 62.48% and the “Wound healing area (%) Immediately after scratching” value is reported as 0%.
“sodium magnesium lauryl-myristyl-6-ethoxy-sulfate [Texapon Asv®]”: in the data set with rabbit eye, the “eye irritation in the Draize rabbit eye test” value is listed as “moderate irritation”.

The values are drawn from patent US12458587B2, “Hypoallergenic composition for skin regeneration or skin soothing, containing culture product or extract of Aureobasidium pullulans strain” (AMOREPACIFIC CORPORATION, priority 2018, dated 2025).
